The text below walks through data of ChEMBL document CHEMBL1130778, “The synthesis and evaluation of cyclic ureas as HIV protease inhibitors: modifications of the P1/P1' residues” (Bioorg Med Chem Lett, 1998).

The target in experiment [1] is Human immunodeficiency virus type 1 protease (Human immunodeficiency virus 1, UniProt Q72874). The experiment in a line: HIV protease inhibition.
Experiment [2] concerns Human immunodeficiency virus 1. The experiment in a line: Whole cell antiviral activity. It counts as functional.

A word on the Ki: it is the equilibrium dissociation constant of an inhibitor or competing ligand from its target. By IC90 is commonly meant the concentration at which the effect reaches the 90% level. On to `O=C1N(Cc2ccccc2)[C@H](Cc2ccc(OCCO)cc2)[C@H](O)[C@@H](O)[C@@H](Cc2ccc(OCCO)cc2)N1Cc1ccccc1`, for which the Ki in experiment [1] was found to be 0.76 nM. The molecule also returned an IC90 in experiment [2] of 78 nM. The matching figures for `CNCCOc1ccc(C[C@@H]2[C@H](O)[C@@H](O)[C@@H](Cc3ccc(OCCNC)cc3)N(Cc3ccccc3)C(=O)N2Cc2ccccc2)cc1`: 1.6 nM and 800 nM. Turning to `O=C1N(Cc2ccccc2)[C@H](Cc2ccc(OCCN3CCOCC3)cc2)[C@H](O)[C@@H](O)[C@@H](Cc2ccc(OCCN3CCOCC3)cc2)N1Cc1ccccc1`, in experiment [1], the Ki is 5.9 nM. The molecule also came in with an IC90 in experiment [2] of 230 nM. On the same counts, the results for `O=C1N(Cc2ccccc2)[C@H](Cc2ccc(OCc3ccncc3)cc2)[C@H](O)[C@@H](O)[C@@H](Cc2ccc(OCc3ccncc3)cc2)N1Cc1ccccc1` are 0.84 nM and 100 nM. On the same counts, the results for `O=C1N(Cc2cccc(-c3cc[nH]n3)c2)[C@H](Cc2ccc(OCc3ccncc3)cc2)[C@H](O)[C@@H](O)[C@@H](Cc2ccc(OCc3ccncc3)cc2)N1Cc1cccc(-c2cc[nH]n2)c1` are 0.071 nM and 18 nM. Take `COc1ccc(C[C@@H]2[C@H](O)[C@@H](O)[C@@H](Cc3ccc(OC)cc3)N(Cc3cccc(-c4cc[nH]n4)c3)C(=O)N2Cc2cccc(-c3cc[nH]n3)c2)cc1`: the Ki in experiment [1] was found to be 0.078 nM. For the same molecule, the IC90 in experiment [2] amounted to 10 nM. Turning to `O=C1N(Cc2ccccc2)[C@H](Cc2ccccc2)[C@H](O)[C@@H](O)[C@@H](Cc2ccccc2)N1Cc1ccccc1`, in experiment [2], the IC90 came out at 790 nM.

Turning to `O=C1N(Cc2ccccc2)[C@H](Cc2ccc(O)cc2)[C@H](O)[C@@H](O)[C@@H](Cc2ccc(O)cc2)N1Cc1ccccc1`, the IC90 in experiment [2] stood at 184 nM. This IC90 is about 4.3-fold lower than that of the molecule before.

As to `O=C1N(Cc2cccc(-c3cc[nH]n3)c2)[C@H](Cc2ccc(O)cc2)[C@H](O)[C@@H](O)[C@@H](Cc2ccc(O)cc2)N1Cc1cccc(-c2cc[nH]n2)c1`, affinity in experiment [1] was put at a Ki of 0.016 nM. For the same molecule, in experiment [2], the 90% effect level (IC90) was put at 1340 nM. The matching figures for `O=C1N(Cc2cccc(-c3cc[nH]n3)c2)[C@H](Cc2ccc(OCc3cccnc3)cc2)[C@H](O)[C@@H](O)[C@@H](Cc2ccc(OCc3cccnc3)cc2)N1Cc1cccc(-c2cc[nH]n2)c1`: 0.059 nM and 32 nM. Take `O=C1N(Cc2cccc(-c3cc[nH]n3)c2)[C@H](Cc2ccccc2)[C@H](O)[C@@H](O)[C@@H](Cc2ccccc2)N1Cc1cccc(-c2cc[nH]n2)c1`: the IC90 in experiment [2] amounted to 56 nM. This lies in the double-digit nanomolar range. In experiment [1], `O=C1N(Cc2cccc(-c3cc[nH]n3)c2)[C@H](Cc2ccc(OCCN3CCOCC3)cc2)[C@H](O)[C@@H](O)[C@@H](Cc2ccc(OCCN3CCOCC3)cc2)N1Cc1cccc(-c2cc[nH]n2)c1` registered a Ki of 0.13 nM. This molecule showed an IC90 in experiment [2] of 1030 nM.

In experiment [1], `CN(C)CCOc1ccc(C[C@@H]2[C@H](O)[C@@H](O)[C@@H](Cc3ccc(OCCN(C)C)cc3)N(Cc3cccc(-c4cc[nH]n4)c3)C(=O)N2Cc2cccc(-c3cc[nH]n3)c2)cc1` had a Ki of 0.061 nM. Besides, in experiment [2], the 90% effect level (IC90) was put at 5400 nM. As for `O=C1N(Cc2cccc(-c3cc[nH]n3)c2)[C@H](Cc2ccc(OCCO)cc2)[C@H](O)[C@@H](O)[C@@H](Cc2ccc(OCCO)cc2)N1Cc1cccc(-c2cc[nH]n2)c1`, the Ki in experiment [1] was determined as 0.059 nM. For the same molecule, in experiment [2], it took 462 nM to reach the 90% level (IC90). Turning to `COc1ccc(C[C@@H]2[C@H](O)[C@@H](O)[C@@H](Cc3ccc(OC)cc3)N(Cc3ccccc3)C(=O)N2Cc2ccccc2)cc1`, the IC90 in experiment [2] worked out at 600 nM. As to `O=C1N(Cc2ccc(CO)cc2)[C@H](Cc2ccccc2)[C@H](O)[C@@H](O)[C@@H](Cc2ccccc2)N1Cc1ccc(CO)cc1` [DMP-323], the Ki in experiment [1] was 0.29 nM. For the same molecule, the 90% effect level in experiment [2] (IC90) was put at 91 nM.

As to `Nc1cccc(CN2C(=O)N(Cc3cccc(N)c3)[C@H](Cc3ccccc3)[C@H](O)[C@@H](O)[C@H]2Cc2ccccc2)c1` [MOZENAVIR], in experiment [2], the IC90 amounted to 126 nM.
